Data: publication PMC12649408 (Antibiotics, 2025)
Like-named read-outs stand apart in the source and are kept apart here. Bridge positions count the residues as written; N and C are the ends. Ends that are not written are not given here.

Key:
Caco-2 cell monolayer = test: Cytotoxicity assay, resazurin method; type: cell-based, human; conditions: for concentration at which cell viability was 0% (100% cell death) / concentration at which cell viability was 50%: Caco-2 monolayer, RPMI-1640, resazurin-test; for СС50 Caco-2: Table S2, monolayer, 24 h in RPMI-1640, resazurin, twice in duplicate
Description: (§1) Cytotoxic activity of the peptides was investigated against human peripheral blood mononuclear cells (PBMCs) and the Caco-2 epithelial monolayer as an in vitro model of the intestinal barrier using a RPMI-1640 medium and resazurin-test.
(§2) In brief, Caco-2 cells in a monolayer or 2 × 10^6 PBMCs per well were incubated with serial dilutions of the peptides for 24 h in RPMI-1640. Resazurin (Sigma, St. Louis, MO, USA) was then added at a final concentration of 70 µM and the plates were incubated for 20 h. Untreated cells (F0) and cells treated by 0.1% Triton X-100 (Sigma-Aldrich) (Fcontrol) were used as negative and positive controls, respectively. Cell viability was assessed by resorufin fluorescence using a 535/595 nm filter and a PlateReader AF2200 as ((Fsample − F0)/(Fcontrol − F0)) × 100%. […] The experiment was carried out twice in duplicate.

PBMCs = test: Cytotoxicity assay, resazurin method; type: cell-based, human; conditions: for СС50 PBMCs: Table S2, 24 h in RPMI-1640, resazurin, twice in duplicate
Description: as §1, §2

[1] = not given; remark: listed apart in the source
[2] = not given; remark: listed apart in the source
[3] = not given; remark: listed apart in the source
[4] = not given; remark: listed apart in the source
[5] = not given; remark: listed apart in the source
[6] = not given; remark: listed apart in the source
[7] = not given; remark: listed apart in the source
[8] = not given; remark: listed apart in the source
[9] = not given; remark: listed apart in the source
[10] = not given; remark: listed apart in the source
[11] = not given; remark: listed apart in the source
[12] = test system: human red blood cells (hRBCs)
Description: All procedures were approved by the Ethics Committee of the Institute of Experimental Medicine (protocol 1/20 of 2/27/2020) and comply with the ethical principles of the Declaration of Helsinki. […] Samples were centrifuged to sediment intact red blood cells. Supernatants containing released hemoglobin were transferred to 96-well microplates, and absorbance was measured at 405 nm. Untreated hRBCs in PBS (A0) and hRBC treated with 0.1% Triton X-100 (Sigma-Aldrich) (Acontrol) were used as negative and positive controls, respectively. The percentage of hemolysis was calculated as [(Asample − A0)/(Acontrol − A0)] × 100%. The experiment was carried out twice in duplicate.

[13] = test system: C. albicans clinical isolate 9.1; conditions: Table 2; resistant clinical isolate 9.1; Sabouraud broth, 30 °C, 24 h, 100% inhibition
Description: (§3) Using the two-fold serial dilution method, antifungal activities of the obtained analogues were tested against different C. albicans strains: susceptible collection strain ATCC 18804; resistant to azoles and anidulafungin collection strain ATCC 10231 and clinical isolates 9.1 and 8.2 [7].
(§4) The antifungal assay was performed by the microdilution method using 96-well microplates and Sabouraud broth as described earlier. […] After that, the plates were incubated at 30 °C for 24 h. A control without antifungals was also tested. Fungal growth was evaluated by measuring absorbance at 630 nm. […] All the experiments were performed twice in triplicate. Microscopic analysis of fungal growth was performed using inverted microscopy (Olympus, Tokyo, Japan). A 0.1% BSA solution was used for the blocking of each microplates well to prevent the adsorption of antifungal agents.

C. albicans ATCC 18804 [14] = conditions: Sabouraud broth
Description: as §3, §4

[15] = test system: C. albicans clinical isolate 8.2; conditions: Table 2; resistant clinical isolate 8.2; Sabouraud broth, 30 °C, 24 h, 100% inhibition
Description: as §3, §4

C. albicans ATCC 10231 = conditions: Table 2; strain resistant to azoles and anidulafungin; Sabouraud broth, 30 °C, 24 h, 100% inhibition
Description: as §3, §4

trypsin = target: T1, trypsin (Bos taurus, UniProt P00760); conditions: 24 h, 37 °C, 50 mM ammonium bicarbonate buffer pH 8.0, 2.5 ng trypsin per 1 μg peptide, SDS-PAGE
T1 construct: gene PRSS1
Description: (§5) For that purpose, peptides were incubated for 24 h at 50 mM ammonium bicarbonate buffer, pH 8.0, with or without protease.
(§6) The results of proteolysis were monitored by SDS-PAGE (17% T, 3%C). α-Casein, known for its susceptibility to proteolytic digestion, was used in these experiments for comparison.

α-chymotrypsin = conditions: 24 h, 37 °C, 50 mM ammonium bicarbonate buffer pH 8.0, 10 ng α-chymotrypsin per 1 μg peptide, SDS-PAGE
Description: as §5, §6

C. albicans ATCC 18804 [16] = test: Checkerboard antifungal assay; type: cell-based; conditions: Sabouraud broth, 24 h, 30 °C, synergism at FICI ≤ 0.5, additive action at 0.5 < FIC ≤ 1
Description: All three selected analogues acted synergistically with caspofungin, and the FICI value for NaD1-2 was lower than that of the tobacco defensin.
Two-fold serial dilutions of each test agent were prepared in 96-well microplates in water or 1% DMSO in the case of caspofungin and mixed with equal volumes of suspensions of C. albicans cells (4 × 10^4 cells/mL) in Sabouraud broth, followed by 24 h incubation at 30 °C. Controls containing DMSO at a final concentration of 0.5% (cells only and single agent dilutions) were included in all caspofungin combination assays. […] To assess the combined effect of antifungal substances, the fractional inhibitory concentration index (FICI) was calculated as FICI = ([A])/([MICA]) + ([B])/([MICB]), where [MICA] and [MICB] are the MICs of the substances A and B, respectively, and [A] and [B] are the concentrations of the substances A and B in iso-effective combinations, respectively.

[17] = Table 2, 30 °C, 24 h, 100% inhibition of fungal growth, absorbance 630 nm, two-fold dilutions, twice in triplicate
[18] = Table 3, No Salts, 50% inhibition of fungal growth
[19] = Table 3, No Salts, 100% inhibition of fungal growth

T1 sequence (P00760 24-246): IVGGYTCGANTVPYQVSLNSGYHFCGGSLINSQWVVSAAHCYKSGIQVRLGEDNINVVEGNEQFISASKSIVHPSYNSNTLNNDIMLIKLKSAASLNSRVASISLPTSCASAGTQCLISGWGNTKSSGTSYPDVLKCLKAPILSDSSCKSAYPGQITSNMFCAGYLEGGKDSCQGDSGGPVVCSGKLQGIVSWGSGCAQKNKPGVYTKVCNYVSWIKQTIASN

## CC[C@H](C)[C@H](NC(=O)CN)C(=O)NCC(=O)N[C@@H](C)C(=O)N[C@H](C(=O)N[C@@H](CC(C)C)C(=O)N[C@@H](CCCCN)C(=O)N[C@H](C(=O)N[C@@H](CC(C)C)C(=O)N[C@H](C(=O)N[C@H](C(=O)NCC(=O)N[C@@H](CC(C)C)C(=O)N1CCC[C@H]1C(=O)N[C@@H](C)C(=O)N[C@@H](CC(C)C)C(=O)N[C@H](C(=O)N[C@@H](CO)C(=O)N[C@@H](Cc1c[nH]c2ccccc12)C(=O)N[C@H](C(=O)N[C@@H](CCCCN)C(=O)N[C@@H](CCCNC(=N)N)C(=O)N[C@@H](CCCCN)C(=O)N[C@@H](CCCNC(=N)N)C(=O)N[C@@H](CCC(N)=O)C(=O)N[C@@H](CCC(N)=O)C(N)=O)[C@@H](C)CC)[C@@H](C)CC)[C@@H](C)O)[C@@H](C)O)C(C)C)C(C)C [melittin]
Caco-2 cell monolayer
  concentration at which cell viability was 0% (100% cell death): ~12.5 µM
  concentration at which cell viability was 50%: ~2.5 µM
  СС50 Caco-2: 2.35 µM
PBMCs
  СС50 PBMCs: 6.10 µM

## H-RECKTESNTFPGICITKPPCRKACISEKFTDGHCSKIRRRCLCTKPC-OH (disulfide 3-47, 14-34, 20-41, 24-43)
other
  Random, DPC micelles: 32.9%
[1]
  Random, SDS micelles: 31.2%
[2]
  α-Helix, DPC micelles: 15.5%
[3]
  β-Turn, SDS micelles: 21.8%
[4]
  Random, aqueous solution: 36.2%
[5]
  β-Sheet, aqueous solution: 34.3%
[6]
  α-Helix, aqueous solution: 8.3%
[7]
  β-Turn, DPC micelles: 20.5%
[8]
  α-Helix, SDS micelles: 14.2%
[9]
  β-Sheet, SDS micelles: 32.8%
[10]
  β-Turn, aqueous solution: 21.2%
[11]
  β-Sheet, DPC micelles: 31.1%

## RECKTESNTFPGICITKPPCRKACISEKFTDGHCRGFRRRCLCTKPC (disulfide 3-47, 14-34, 20-41, 24-43) [NaD1-L5]
other
  Random, DPC micelles: 35.5%
[1]
  Random, SDS micelles: 35.9%
[2]
  α-Helix, DPC micelles: 18.2%
[12]; Table S2, 4% v/v hRBCs in PBS, 2 h, 37 °C
  Hemolysis at 100 µM: no hemolysis
[3]
  β-Turn, SDS micelles: 23.4%
[4]
  Random, aqueous solution: 39.3%
[5]
  β-Sheet, aqueous solution: 22.9%
[13]
  MIC: 6.25 µM
C. albicans ATCC 18804 [14]; 50 mM NaCl, 50% inhibition
  IC50: 25 to 50 µM
C. albicans ATCC 18804 [14]; 50 mM NaCl, 100% inhibition
  MIC: 50 µM
C. albicans ATCC 18804 [14]; 150 mM NaCl, 50% inhibition
  IC50: > 50 µM
C. albicans ATCC 18804 [14]; 150 mM NaCl, 100% inhibition
  MIC: >50 µM
C. albicans ATCC 18804 [14]; [17]
  MIC: 6.25 µM
C. albicans ATCC 18804 [14]; [18]
  IC50: 3.13 to 6.25 µM
C. albicans ATCC 18804 [14]; [19]
  MIC: 6.25 µM
C. albicans ATCC 18804 [14]; […] CaCl2, 50% inhibition
  IC50: 25 to 50 µM
C. albicans ATCC 18804 [14]; […] CaCl2, 100% inhibition
  MIC: 50 µM
C. albicans ATCC 18804 [14]; […] MgCl2, 50% inhibition
  IC50: 12.5 to 25 µM
C. albicans ATCC 18804 [14]; […] MgCl2, 100% inhibition
  MIC: 50 µM
[15]
  MIC: 25 µM
C. albicans ATCC 10231
  MIC: 6.25 µM
[6]
  α-Helix, aqueous solution: 13.5%
[7]
  β-Turn, DPC micelles: 22.3%
Caco-2 cell monolayer
  СС50 Caco-2: > 150 µM
Caco-2 cell monolayer; in words, at a concentration of 150 µM
  cytotoxic effects on Caco-2 cells: practically no cytotoxic effects
[8]
  α-Helix, SDS micelles: 17.8%
[9]
  β-Sheet, SDS micelles: 23%
[10]
  β-Turn, aqueous solution: 24.3%
[11]
  β-Sheet, DPC micelles: 24.1%

## RECKTESNTFPGICITKPPCRKACISEKFTDGHCSKILRRCLCTKPC (disulfide 3-47, 14-34, 20-41, 24-43) [NaD1]
other
  Random, DPC micelles: 34.2%
[1]
  Random, SDS micelles: 31%
[2]
  α-Helix, DPC micelles: 9.3%
[12]; 100 µM
  Hemolysis at 100 µM: 14%
[3]
  β-Turn, SDS micelles: 22.2%
[4]
  Random, aqueous solution: 35.8%
[5]
  β-Sheet, aqueous solution: 35.4%
[13]
  MIC: 6.25 µM
C. albicans ATCC 18804 [14]; 50 mM NaCl, 50% inhibition
  IC50: 12.5 to 25 µM
C. albicans ATCC 18804 [14]; 50 mM NaCl, 100% inhibition
  MIC: 50 µM
C. albicans ATCC 18804 [14]; 150 mM NaCl, 50% inhibition
  IC50: > 50 µM
C. albicans ATCC 18804 [14]; [17]
  MIC: 6.25 µM
C. albicans ATCC 18804 [14]; [18]
  IC50: 1.56 to 3.13 µM
C. albicans ATCC 18804 [14]; [19]
  MIC: 6.25 µM
C. albicans ATCC 18804 [14]; […] CaCl2, 50% inhibition
  IC50: > 50 µM
C. albicans ATCC 18804 [14]; […] CaCl2, 100% inhibition
  MIC: >50 µM
C. albicans ATCC 18804 [14]; […] MgCl2, 50% inhibition
  IC50: 3.13 to 6.25 µM
C. albicans ATCC 18804 [14]; […] MgCl2, 100% inhibition
  MIC: 12.5 µM
[15]
  MIC: 6.25 µM
C. albicans ATCC 10231
  MIC: 6.25 µM
trypsin
  stability to trypsin digestion: high stability
[6]
  α-Helix, aqueous solution: 7.5%
α-chymotrypsin
  stability to chymotrypsin digestion: high stability
[7]
  β-Turn, DPC micelles: 21.1%
Caco-2 cell monolayer
  concentration at which cell viability was 0% (100% cell death): 37.5 µM
  concentration at which cell viability was 50%: 10.5 µM
  СС50 Caco-2: 10.5 µM
PBMCs; PBMCs, peptide 100 μM, RPMI-1640, resazurin-test
  cell viability: approximately 72%
PBMCs
  СС50 PBMCs: > 100 µM
[8]
  α-Helix, SDS micelles: 15.8%
[9]
  β-Sheet, SDS micelles: 31%
[10]
  β-Turn, aqueous solution: 21.3%
C. albicans ATCC 18804 [16]; combination of the peptide with LL-37
  FICI LL-37: 0.38
C. albicans ATCC 18804 [16]; combination of the peptide with caspofungin
  FICI Casp: 0.31
[11]
  β-Sheet, DPC micelles: 35.4%
